Assay results published in patent US11352338B2, “Substituted isoindolinones” (BioTheryX, Inc., priority 2018, dated 2022).

What was measured:
TNFα = TNFα inhibition, LPS-induced PBMCs or CD14+ monocytes, Meso Scale assay; format: cell-based; details: LPS 100 ng/mL 18-24 h, read-out: % Inhibition compared to DMSO, TNFα; for inhibition at 1 µM: tested at 1 μM; for inhibition at 10 µM: tested at 10 μM
Experimental: (§1) Either frozen primary blood mononuclear cells (PBMCs) or frozen CD14+ mobilized peripheral blood monocytes were purchased from AllCells (PB003F, Normal Peripheral Blood MNC (Alameda, Calif.)). Cells were quick thawed, washed 1-time with RPMI-1640 (10% FBS/1% Pen-Strep) and plated in 96 well plates at 200,000 cells per well. Cells were pretreated with DMSO only or with the indicated compound for 1 h and then induced with 100 ng/mL lipopolysaccharide (LPS) for 18-24 h. The supernatant was analyzed for IL-1β, IL-6, and TNFα, using Meso Scale assay according to manufacturer's protocol. The negative control wells were treated with DMSO.
(§2) IL-1β, IL-6 and TNFα activities were tested at two different concentrations (1 μM and 10 μM) and the results are shown in Tables 2 and 3 respectively.

Ikaros = target: T1, Ikaros (Homo sapiens, UniProt Q13422+Q96SW2); assay: Western blot, degradation of cellular Ikaros in MV-4-11 cells; format: cell-based; details: MV4-11, tested at 1 μM, 6-8 hours, read-out: % Degradation compared to DMSO, Ikaros
T1 construct: endogenous in cells; host or cells: MV-4-11
T1 sequence (Q13422 whole entry): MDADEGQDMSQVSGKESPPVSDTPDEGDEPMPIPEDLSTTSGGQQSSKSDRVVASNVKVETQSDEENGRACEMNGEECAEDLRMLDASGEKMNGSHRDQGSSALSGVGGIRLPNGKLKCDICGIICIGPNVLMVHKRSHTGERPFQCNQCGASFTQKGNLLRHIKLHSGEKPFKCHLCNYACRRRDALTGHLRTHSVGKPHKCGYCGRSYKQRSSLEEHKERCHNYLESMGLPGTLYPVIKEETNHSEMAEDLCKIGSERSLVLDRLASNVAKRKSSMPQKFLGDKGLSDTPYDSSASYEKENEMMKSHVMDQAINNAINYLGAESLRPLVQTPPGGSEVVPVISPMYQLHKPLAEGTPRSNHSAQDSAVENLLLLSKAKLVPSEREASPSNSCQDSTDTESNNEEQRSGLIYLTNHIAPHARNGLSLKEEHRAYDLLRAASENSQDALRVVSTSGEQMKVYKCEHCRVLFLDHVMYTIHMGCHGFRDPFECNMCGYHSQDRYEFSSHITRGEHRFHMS
T1 sequence (Q96SW2 whole entry): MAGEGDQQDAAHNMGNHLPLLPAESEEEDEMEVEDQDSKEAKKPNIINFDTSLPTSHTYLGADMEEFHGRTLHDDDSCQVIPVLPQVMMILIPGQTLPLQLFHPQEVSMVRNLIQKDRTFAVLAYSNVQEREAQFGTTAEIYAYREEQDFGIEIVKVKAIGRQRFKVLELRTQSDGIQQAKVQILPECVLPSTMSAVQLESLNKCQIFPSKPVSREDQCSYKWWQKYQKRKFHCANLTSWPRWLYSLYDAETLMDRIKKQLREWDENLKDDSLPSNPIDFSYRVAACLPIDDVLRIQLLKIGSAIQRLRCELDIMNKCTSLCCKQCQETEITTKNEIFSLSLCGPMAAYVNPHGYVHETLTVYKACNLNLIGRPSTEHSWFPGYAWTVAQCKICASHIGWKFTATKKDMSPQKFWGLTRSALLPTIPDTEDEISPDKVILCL
T1 sequence (Q16531 whole entry partner): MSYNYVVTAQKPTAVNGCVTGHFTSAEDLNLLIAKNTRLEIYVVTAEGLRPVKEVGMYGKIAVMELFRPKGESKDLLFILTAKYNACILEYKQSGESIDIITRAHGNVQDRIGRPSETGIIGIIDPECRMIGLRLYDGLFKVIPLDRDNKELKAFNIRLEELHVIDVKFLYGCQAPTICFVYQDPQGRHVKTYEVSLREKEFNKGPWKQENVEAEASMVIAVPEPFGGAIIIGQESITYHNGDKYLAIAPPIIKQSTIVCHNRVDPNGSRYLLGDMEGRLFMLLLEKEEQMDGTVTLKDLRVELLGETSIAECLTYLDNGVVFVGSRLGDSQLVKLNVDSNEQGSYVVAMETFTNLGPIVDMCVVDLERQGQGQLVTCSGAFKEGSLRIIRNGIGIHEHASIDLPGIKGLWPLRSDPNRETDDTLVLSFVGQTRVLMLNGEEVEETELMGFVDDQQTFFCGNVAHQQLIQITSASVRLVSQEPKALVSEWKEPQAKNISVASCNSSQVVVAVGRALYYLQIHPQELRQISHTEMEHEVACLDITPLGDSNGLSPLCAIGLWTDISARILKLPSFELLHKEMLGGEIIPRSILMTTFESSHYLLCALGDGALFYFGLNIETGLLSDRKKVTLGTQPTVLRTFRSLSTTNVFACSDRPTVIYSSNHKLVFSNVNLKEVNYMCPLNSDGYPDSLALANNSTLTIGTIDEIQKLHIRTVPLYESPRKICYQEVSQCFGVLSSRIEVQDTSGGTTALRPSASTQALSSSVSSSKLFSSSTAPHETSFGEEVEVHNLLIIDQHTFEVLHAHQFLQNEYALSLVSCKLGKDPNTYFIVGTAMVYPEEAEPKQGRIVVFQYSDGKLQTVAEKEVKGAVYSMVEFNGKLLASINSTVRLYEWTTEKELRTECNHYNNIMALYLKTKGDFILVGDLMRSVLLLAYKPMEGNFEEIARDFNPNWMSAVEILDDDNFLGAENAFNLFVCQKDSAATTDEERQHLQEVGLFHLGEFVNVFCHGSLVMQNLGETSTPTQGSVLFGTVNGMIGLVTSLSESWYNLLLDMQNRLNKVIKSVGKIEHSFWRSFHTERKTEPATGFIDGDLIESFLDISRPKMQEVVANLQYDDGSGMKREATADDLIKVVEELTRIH
Experimental: (§3) MV-4-11 cells were grown in RPMI 1640 media supplemented with 10% fetal bovine serum, streptomycin and penicillin.
(§4) Cells were cultured at approximately 10^6 cells per mL and incubated in DMSO or the indicated compounds for 6-8 hours. Whole cell extracts were prepared using RIPA lysis buffer according to manufacturer's protocol (Pierce). Briefly, 4×10^6 cells were washed once in PBS, the cell pellets were resuspended in RIPA lysis buffer and allowed to incubate for 15 minutes on ice. Cells debris was removed by centrifugation and the cleared whole cell lysates were transferred to new tubes for further analysis.
(§5) For Western blot analysis, whole cell protein extracts were separated on 4-12% SDS-polyacrylamide gels, transferred to nitrocellulose and probed with the indicated primary antibodies. Membranes were subsequently washed and probed with the appropriate IRDye secondary antibodies (LI-COR). The signal was detected using the Odyssey Imaging System (LI-COR).
(§6) The following antibodies were used in these studies: Anti-PDE6D antibody: Santa Cruz Biotechnology, sc-166854 (Dallas, Tex.); Anti-Ikaros: Abcam, ab191394 (Cambridge, Mass.); anti-CK1α antibody: Abcam, ab108296 (Cambridge, Mass.); β-Actin (8H10D10) mouse monoclonal antibody: Cell Signaling Technology, #3700 (Danvers, Mass.); IRDye 680RD Goat anti-rabbit antibody: LI-COR, 926-68071 (Lincoln, Nebr.); and IRDye 800CW Goat anti-mouse antibody: LI-COR, 926-32210 (Lincoln, Nebr.).
(§7) The % degradation values are reported as “A”, “B”, “C”, or “D.” “A” represents a % degradation value of less than 25% (value<25%); “B” represents a % degradation value of equal to or more than 25% and less than 50% (25%≤value<50%); “C” represents a % degradation value of equal to or more than 50% and less than 75% (50%≤value<75%); and “D” represents a % degradation value of equal to or more than 75% (value≥75%). […] was used as control.

IL-2 = IL-2 inhibition assay, anti-CD3 (OKT3) stimulated PBMCs, Mesoscale IL-2 analysis; format: cell-based, human; details: Homo sapiens, PBMC, PBMCs on anti-CD3, 24 h, fold difference from DMSO control, read-out: IL-2, % Induction compared to DMSO
Experimental: For the IL-2 analysis, 96 well plates were precoated with 1 μg/mL anti-human CD3 antibody (OKT3, eBioscience Inc., San Diego, Calif.). After washing with PBS, the indicated compound was added (50 μL/well) followed by PBMCs diluted at 3-4 million cells/mL (150 μL/well). Plates were incubated for 24 h and the supernatants collected for Mesoscale IL-2 analysis. IL-2 activity is measured as fold difference from the DMSO control. […]
In Table 4, the fold-change values are reported as “A”, “B”, “C”, or “D”. “A” represents a fold-change value of equal to or less than 0.5 (value≤0.5); “B” represents a fold-change value of more than 0.5 and equal to or less than 1 (0.5<value≤1); “C” represents a fold-change value of more than 1 and less than 1.5 (1<value<1.5); and “D” represents a fold-change value of equal to or more than 1.5 (value≥1.5).

IL-6 = IL-6 inhibition, LPS-induced PBMCs or CD14+ monocytes, Meso Scale assay; format: cell-based; details: LPS 100 ng/mL 18-24 h, read-out: % Inhibition compared to DMSO, IL-6; for inhibition at 1 µM: tested at 1 μM; for inhibition at 10 µM: tested at 10 μM
Experimental: as §1, §2

CK1α = target: T2, CK1α (Homo sapiens, UniProt P48729+Q96SW2); assay: Western blot, degradation of cellular CK1α in MV-4-11 cells; format: cell-based; details: MV4-11, tested at 1 μM, 6-8 hours, read-out: % Degradation compared to DMSO, CK1α
T2 construct: endogenous in cells; host or cells: MV-4-11
T2 sequence (P48729 whole entry): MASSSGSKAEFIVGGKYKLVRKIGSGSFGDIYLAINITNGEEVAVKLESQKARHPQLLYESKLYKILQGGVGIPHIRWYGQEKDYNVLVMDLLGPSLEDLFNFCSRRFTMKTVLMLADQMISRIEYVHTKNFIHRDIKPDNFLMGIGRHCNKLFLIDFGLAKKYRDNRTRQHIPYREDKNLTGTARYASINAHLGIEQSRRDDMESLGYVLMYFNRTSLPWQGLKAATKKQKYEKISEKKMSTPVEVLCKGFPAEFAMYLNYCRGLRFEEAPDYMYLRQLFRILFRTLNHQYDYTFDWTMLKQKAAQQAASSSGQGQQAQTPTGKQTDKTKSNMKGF
T2 sequence (Q96SW2 whole entry): as the sequence (Q96SW2 whole entry) above
T2 sequence (Q16531 whole entry partner): as the sequence (Q16531 whole entry partner) above
Experimental: as §3, §4, §5, §6, §7

IL-1β = IL-1β inhibition, LPS-induced PBMCs or CD14+ monocytes, Meso Scale assay; format: cell-based; details: LPS 100 ng/mL 18-24 h, read-out: % Inhibition compared to DMSO, IL-1β; for inhibition at 1 µM: tested at 1 μM; for inhibition at 10 µM: tested at 10 μM
Experimental: as §1, §2

PDE6D = target: T3, PDE6D (Homo sapiens, UniProt O43924+Q96SW2); assay: Western blot, degradation of cellular PDE6D in MV-4-11 cells; format: cell-based; details: MV4-11; tested at 1 μM, MV-4-11 cells, 6-8 hours; read-out: % Degradation compared to DMSO, PDE6D
T3 construct: endogenous in cells; host or cells: MV-4-11
T3 sequence (O43924 whole entry): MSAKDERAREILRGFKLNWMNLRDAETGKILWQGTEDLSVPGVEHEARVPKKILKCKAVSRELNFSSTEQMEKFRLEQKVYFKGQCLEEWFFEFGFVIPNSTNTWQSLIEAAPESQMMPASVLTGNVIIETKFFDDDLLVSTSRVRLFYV
T3 sequence (Q96SW2 whole entry): as the sequence (Q96SW2 whole entry) above
T3 sequence (Q16531 whole entry partner): as the sequence (Q16531 whole entry partner) above
Experimental: as §3, §4, §5, §6, §7

SMILES	Dmax at 1 µM (Ikaros) [%]	Dmax at 1 µM (CK1α) [%]	Dmax at 1 µM (PDE6D) [%]	inhibition at 1 µM (TNFα) [%]	inhibition at 10 µM (TNFα) [%]	fold induction at 1 µM (IL-2)	fold induction at 10 µM (IL-2)	inhibition at 1 µM (IL-6) [%]	inhibition at 10 µM (IL-6) [%]	inhibition at 1 µM (IL-1β) [%]	inhibition at 10 µM (IL-1β) [%]
O=C1CCC(N2Cc3c(cc(F)cc3C3CCC3)C2=O)C(=O)N1 (centres unmarked) [Compound 20]	25 to 50	50 to 75	≥ 75	10 to 25	25 to 50	≤ 0.5	≤ 0.5	< 10	< 10	< 10	< 10
O=C1CCC(N2Cc3c(cc(F)cc3C3CCC(F)(F)CC3)C2=O)C(=O)N1 (centres unmarked) [Compound 11]	≥ 75	25 to 50	≥ 75	< 10	< 10	0.5 to 1	0.5 to 1	< 10	< 10	< 10	< 10
O=C1CCC(N2Cc3c(cccc3C3CCCC3)C2=O)C(=O)N1 (centres unmarked) [Compound 2]	< 25	25 to 50	≥ 75	< 10	10 to 25	0.5 to 1	0.5 to 1	10 to 25	10 to 25	< 10	10 to 25
CC1(C)CCCC1c1cc(F)cc2c1CN(C1CCC(=O)NC1=O)C2=O (centres unmarked) [Compound 26]	25 to 50	< 25	50 to 75	< 10	10 to 25	0.5 to 1	0.5 to 1	< 10	< 10	< 10	< 10
O=C1CCC(N2Cc3c(cc(F)cc3C3CC3)C2=O)C(=O)N1 (centres unmarked) [Compound 5]	25 to 50	≥ 75	≥ 75	25 to 50	> 50	≤ 0.5	≤ 0.5	< 10	< 10	25 to 50	> 50
O=C1CCC(N2Cc3c(cc(F)cc3C3=CCC(F)(F)CC3)C2=O)C(=O)N1 (centres unmarked) [Compound 9]	< 25	< 25	≥ 75	< 10	25 to 50	0.5 to 1	0.5 to 1	10 to 25	10 to 25	< 10	< 10

More lines, main results first:

Dmax at 1 µM (Ikaros) [%]	Dmax at 1 µM (CK1α) [%]	Dmax at 1 µM (PDE6D) [%]	SMILES	inhibition at 1 µM (TNFα) [%]	inhibition at 10 µM (TNFα) [%]	fold induction at 1 µM (IL-2)	fold induction at 10 µM (IL-2)	inhibition at 1 µM (IL-6) [%]	inhibition at 10 µM (IL-6) [%]	inhibition at 1 µM (IL-1β) [%]	inhibition at 10 µM (IL-1β) [%]
< 25	≥ 75	≥ 75	CCC(C)c1cc(F)cc2c1CN(C1CCC(=O)NC1=O)C2=O (centres unmarked) [Compound 33, 3-(4-(sec-butyl)-6-fluoro-1-oxoisoindolin-2-yl)piperidine-2,6-dione]	25 to 50	–	≤ 0.5	–	< 10	–	< 10	–
< 25	< 25	< 25	O=C1CCC(N2Cc3c(C4CCCC4)ccc(F)c3C2=O)C(=O)N1 (centres unmarked) [Compound 27]	10 to 25	25 to 50	0.5 to 1	0.5 to 1	10 to 25	< 10	< 10	< 10
25 to 50	< 25	< 25	O=C1CCC(N2Cc3c(cc(C(F)(F)F)cc3C3CCCC3)C2=O)C(=O)N1 (centres unmarked) [Compound 29]	< 10	10 to 25	0.5 to 1	0.5 to 1	10 to 25	< 10	< 10	< 10
